The source of these data is patent US20050014731A1, “Treatment of Th1 dominated immunological disease states with non-endogenous gestagen compounds” (Solvay Pharmaceuticals GmbH, priority 2002, published 2005).

Test [1] relates to Th1 cytokine production to trophoblast. To be noted: in vitro, women with recurrent pregnancy loss; Choi et al., Human Reproduction 15/1 (2000) 46-59; cited from earlier work.
Test [2] concerns pregnant mice. Nature of the test: murine stress-induced abortion model. In kind it is in vivo. The text has this:
The results of the pharmacological test method given above can also be confirmed in an in vivo test model involving pregnant mice. […] Pregnant mice were exposed to ultrasound on day 5 of gestation. This stress increased the abortion rate of these mice from around 12% to 44%. Treatment with dydrogesterone reduced the abortion in a dose-related manner to as low as 5%.

Test [3] has as its system peripheral blood mononuclear cells (=PBMC). The test is described as follows: Th1 and Th2 cytokine profiles produced by mitogen-stimulated PBMC (ELISA), ex vivo. In kind it is cell-based, human. As for the experimental part:
The effects of dydrogesterone on Th1 and Th2 cytokine profiles produced by mitogen-stimulated peripheral blood mononuclear cells (=PBMC) were determined. Several studies have pointed to a deviation of cytokine profiles in women when during pregnancy. Pregnancy is associated with a shift towards Th2 bias, evinced by changes in peripheral T cells, by cytokine production by peripheral lymphocytes and by cytokine changes at the maternal-fetal interface. Unexplained recurrent spontaneous abortion (URSA) seems to be associated with a stronger bias towards Th1 cytokines. Women who have earlier been gone through URSA may therefore be regarded as a pre-selected group of patients that will typically respond to an immunological stimulation by showing a Th1 dominated pattern of immune response. The pharmacological test was therefore performed with a suitable URSA group which comprised of women admitted with spontaneous abortion for evacuation, (i) who have had at least two previous unexplained miscarriages, (ii) who were currently undergoing at least a 3rd abortion and (iii) who had been fully investigated. The relationship between habitual abortion and cytokine production response in 54 women with normal pregnancy (and at least 3 previous normal pregnancies) and 23 women with a history of habitual abortion of unexplained aetiology (URSA group) has been investigated. Mitogen-induced stimulation of Peripheral Blood Mononuclear Cells (PBMC): Peripheral blood was obtained by venipuncture from the abortion group on the day of abortion. PBMC is separated by Ficoll-paque (Pharmacia Biotech, Sweden) density gradient centrifugation, suspended in RPMI medium (=“Roswell Park Memorial Institute”-medium; obtained from GIBCO/BRL, USA) containing 10% fetal calf serum, aliquoted into 96 well tissue culture plates at a density of 100.000 cells per well and then stimulated with the mitogen phytohemagglutinin (=PHA, Sigma Chemicals, USA) at a concentration of […] for a period of 96 hours, with autologous placental antigens or with trophoblast antigens. Progesterone, dydrogesterone (Duphaston®) and RU486 (=mifepristone) was added in different combinations as described below. Progesterone was tested at concentrations of […]. RU486 was tested at equivalent concentrations. Culture supernatants were harvested at 96 hours for determination of the levels of cytokines secreted by the PBMC into the supernatants. Cytokine levels were determined in the supernatants by enzyme-linked immunosorbent assay (=ELISA). Protocol of Experimental Samples: Each sample was tested in the following manner: • PBMC+mitogen • PBMC+mitogen+progesterone • PBMC+mitogen+progesterone+RU486 • PBMC+mitogen+dydrogesterone • PBMC+mitogen+dydrogesterone+RU486 • PBMC+mitogen+Carrier • PBMC+mitogen+Carrier+RU486 Determination of cytokine levels by ELISA: Th1 cytokines TNF-α and IFN-γ, and Th2 cytokines IL-4, IL-6 and IL-10 were evaluated in these samples by ELISA using kits that were obtained from Immunotech SA, France. These consisted of “sandwich ELISA”; briefly the first step leads to the capture of the relevant cytokine by monoclonal anti-cytokine antibodies bound to the wells of microtiter plates. In the second step, a second biotinylated monoclonal is added together with streptavidin-enzyme (peroxidase or alkaline phosphatase) conjugate. The biotinylated antibody binds to the solid phase antibody-antigen complex, and in turn, binds the conjugate. After incubation the wells are washed and the binding of the streptavidin-enzyme via biotin is followed by the addition of a chromogenic substrate. The intensity of the coloration produced is proportional to the concentration of the cytokine in the sample. Standard curves are plotted for each of the cytokines using reference recombinant cytokines and the results are read from these curves. The sensitivity of each of the assays is as follows: 5 pg/ml of TNF-α, 0.08 IU/ml of IFN-γ, 5 pg/ml of IL-4 and 5 pg/ml of IL-10. […]

[4] abbreviates: PHA-stimulated PBMC supernatant, ELISA, 96 hours.
[5] abbreviates: women with spontaneous abortion and habitual abortion.

For the molecule `CC(=O)[C@H]1CC[C@H]2[C@@H]3CCC4=CC(=O)CC[C@]4(C)[C@H]3CC[C@]12C` [progesterone], the “embryotoxic Th1 cytokine production to trophoblast” value in test [1] is “inhibits”.
Take `CC(=O)[C@H]1CC[C@H]2[C@@H]3C=CC4=CC(=O)CC[C@@]4(C)[C@@H]3CC[C@]12C` [dydrogesterone]: the Th1/Th2-cytokine production result in test [2] (murine stress-induced abortion model) is reported as “shift from Th1 to Th2-cytokine production”. In addition, the abortion rate in test [2] (pregnant mice exposed to ultrasound on day 5 of gestation, dose-related, stress raised rate from around 12% to 44%) is recorded as ≥ 5%. Further, the “level of IL-4” value in test [2] (pregnant mice exposed to ultrasound stress on day 5 of gestation) is given as “increased level”. In addition, in test [3] (setting [4]), the IFN-γ entry was “reduction of IFN-γ”, the “Interleukin 4” value is “marked increase” and the “Interleukin 6” value was “marked increase”. For the same molecule, in test [3] (PHA-stimulated PBMC, 96 hours, women with spontaneous and habitual abortion), the Th1/Th2 bias result was “shift from a Th1 towards a Th2 bias”. For the same molecule, in test [3] (setting [5]), the activity of lymphocytes result is recorded as “reduced the activity of lymphocytes” and the “release of progesterone induced blocking factor (PIBF)” value is recorded as “increased release”.
